Assay results from PubChem BioAssay AID256 (DTP/NCI, 2004).
Where “and” joins values, the source holds several entries; their conditions need not be identical. Equal entries are not always repeated. Toxic doses and inconclusive results are not listed. The calls were made as follows: active = survival T/C of 150% or more; inactive = T/C below 125% in these data.

Test system: CD2F1 mice, L1210 leukemia ip, survival T/C
Experiment: NCI In Vivo Anticancer Drug Screen. Data for tumor model L1210 Leukemia (intraperitoneal) in CD2F1 (CDF1) mice
Details: endpoint: mean survival time, higher = longer survival
How it was run: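 In this screen, transplantable tumors were grown in mice given either the compound or its vehicle. Results were expressed as the treated measurement relative to the control measurement.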

[1] = dose: 100.0 mg/kg/injection, schedule: Q04DX002 (ip), vehicle: saline with Tween-80
[2] = dose: 200.0 mg/kg/injection, schedule: Q04DX002 (ip), vehicle: saline with Tween-80
[3] = dose: 400.0 mg/kg/injection, schedule: Q04DX002 (ip), vehicle: saline with Tween-80
[4] = dose: 50.0 mg/kg/injection, schedule: Q01DX009 (ip), vehicle: saline with Tween-80
[5] = dose: 100.0 mg/kg/injection, schedule: Q01DX009 (ip), vehicle: other
[6] = dose: 100.0 mg/kg/injection, schedule: Q01DX009 (ip), vehicle: saline with Tween-80
[7] = dose: 200.0 mg/kg/injection, schedule: Q01DX009 (ip), vehicle: saline with Tween-80
[8] = dose: 400.0 mg/kg/injection, schedule: Q01DX009 (ip), vehicle: saline with Tween-80
[9] = dose: 100.0 mg/kg/injection, schedule: Q04DX003 (ip), vehicle: saline with Tween-80
[10] = dose: 200.0 mg/kg/injection, schedule: Q04DX003 (ip), vehicle: saline with Tween-80
[11] = dose: 25.0 mg/kg/injection, schedule: Q01DX001 (ip), vehicle: Klucel (hydroxypropylcellulose) (HPC)
[12] = dose: 50.0 mg/kg/injection, schedule: Q01DX001 (ip), vehicle: Klucel (hydroxypropylcellulose) (HPC)
[13] = dose: 100.0 mg/kg/injection, schedule: Q01DX001 (ip), vehicle: Klucel (hydroxypropylcellulose) (HPC)
[14] = dose: 100.0 mg/kg/injection, schedule: Q04DX003 (ip), vehicle: saline
[15] = dose: 200.0 mg/kg/injection, schedule: Q04DX003 (ip), vehicle: saline

Measured: T/C

C=C(C)CNC1=C(C)C(=O)C2=C(C1=O)[C@@H](COC(N)=O)[C@]1(O)[C@H]3[C@@H](CN21)N3C (some centres not stated)
active: dose: 100.0 mg/kg/injection, schedule: Q01DX001 (ip), vehicle: distilled water + Tween-80 156 % of control
inactive: dose: 1.5 mg/kg/injection, schedule: Q01DX001 (ip), vehicle: water 97 % of control | dose: 3.0 mg/kg/injection, schedule: Q01DX001 (ip), vehicle: water 97 % of control | dose: 6.0 mg/kg/injection, schedule: Q01DX001 (ip), vehicle: water 103 % of control | dose: 12.0 mg/kg/injection, schedule: Q01DX001 (ip), vehicle: water 98 % of control | dose: 24.0 mg/kg/injection, schedule: Q01DX001 (ip), vehicle: water 106 % of control

O=C=N/C=C/NC(=O)Nc1cccc(Cl)c1
inactive: [1] 104 % of control | [2] 93 % of control | [3] 101 % of control

O=C1CC2=C(CC(O)=CC=C2)C(=O)O1
inactive: dose: 100.0 mg/kg/injection, schedule: Q01DX009 (ip), vehicle: saline 101 % of control | dose: 200.0 mg/kg/injection, schedule: Q01DX009 (ip), vehicle: saline 93 % of control

CCN(CCO)c1ccc(N)cc1C
inactive: dose: 1.56 mg/kg/injection, schedule: Q01DX009 (ip), vehicle: saline 100 % of control | dose: 1.56 mg/kg/injection, schedule: Q04DX003 (ip), vehicle: saline 101 % of control | dose: 3.13 mg/kg/injection, schedule: Q01DX009 (ip), vehicle: saline 100 % of control | dose: 3.13 mg/kg/injection, schedule: Q04DX003 (ip), vehicle: saline 104 % of control | dose: 6.25 mg/kg/injection, schedule: Q01DX009 (ip), vehicle: saline 101 % of control | dose: 6.25 mg/kg/injection, schedule: Q04DX003 (ip), vehicle: saline 97 % of control

CC1(C)C(N2CCCCC2)CS1(=O)=O (configuration not stated)
inactive: dose: 25.0 mg/kg/injection, schedule: Q04DX003 (ip), vehicle: saline 98 % of control | dose: 50.0 mg/kg/injection, schedule: Q04DX003 (ip), vehicle: saline 95 % of control | dose: 100.0 mg/kg/injection, schedule: Q01DX001 (ip), vehicle: saline 101 % of control

N#CSCc1ccccc1Cl
inactive: dose: 2.5 mg/kg/injection, schedule: Q01DX009 (ip), vehicle: saline sonified 91 % of control | dose: 5.0 mg/kg/injection, schedule: Q01DX009 (ip), vehicle: saline sonified 96 % of control | dose: 5.0 mg/kg/injection, schedule: Q04DX003 (ip), vehicle: saline with Tween-80 95 % of control | dose: 10.0 mg/kg/injection, schedule: Q01DX009 (ip), vehicle: saline sonified 96 % of control | dose: 10.0 mg/kg/injection, schedule: Q04DX003 (ip), vehicle: saline with Tween-80 86 % of control

CN(C)N=Nc1c(F)c(F)c(F)c(F)c1F
inactive: dose: 12.5 mg/kg/injection, schedule: Q01DX009 (ip), vehicle: other 98 % of control | dose: 25.0 mg/kg/injection, schedule: Q01DX009 (ip), vehicle: other 102 % of control | dose: 25.0 mg/kg/injection, schedule: Q01DX009 (ip), vehicle: saline with Tween-80 106 % of control | dose: 50.0 mg/kg/injection, schedule: Q01DX009 (ip), vehicle: other 104 % of control | [4] 104 % of control | [5] 104 % of control | [6] 107 % of control | dose: 200.0 mg/kg/injection, schedule: Q01DX009 (ip), vehicle: other 115 % of control

COC(=O)[C@]1(C)CCC[C@]2(C)c3cc(C(C)=O)c(C(C)C)cc3CC[C@@H]12
inactive: [6] 97 % of control | [7] 97 % of control | [8] 100 % of control

C(=C\c1ccc2ccccc2n1)/c1ccc2c(c1)OCO2
inactive: [6] 96 % of control | [9] 102 % of control | [7] 96 % of control | [10] 102 % of control | [8] 95 % of control | dose: 400.0 mg/kg/injection, schedule: Q04DX003 (ip), vehicle: saline with Tween-80 101 % of control

Cc1ccc(C(=O)CC(O)(C(F)(F)F)C(F)(F)F)cc1
inactive: [5] 106 % of control | dose: 400.0 mg/kg/injection, schedule: Q01DX009 (ip), vehicle: other 112 % of control

O=S(=O)(C#Cc1ccccc1)c1ccccc1
inactive: [11] 95 % of control | [12] 102 % of control | [13] 100 % of control

O=S(=O)(c1ccc(N2CCOCC2)cc1)c1ccnc2cc(Cl)ccc12
inactive: dose: 100.0 mg/kg/injection, schedule: Q01DX001 (ip), vehicle: saline with Tween-80 93 % of control | [6] 89 % of control | dose: 200.0 mg/kg/injection, schedule: Q01DX001 (ip), vehicle: saline with Tween-80 101 % of control | dose: 400.0 mg/kg/injection, schedule: Q01DX001 (ip), vehicle: saline with Tween-80 87 % of control

COc1cc(OC)cc(C(=O)Cl)c1
inactive: dose: 100.0 mg/kg/injection, schedule: Q04DX003 (ip), vehicle: saline sonified 98 % of control | dose: 200.0 mg/kg/injection, schedule: Q04DX003 (ip), vehicle: saline sonified 95 % of control | dose: 400.0 mg/kg/injection, schedule: Q04DX003 (ip), vehicle: saline sonified 91 % of control

Nc1nnnn1-c1cccc(Cl)c1
inactive: [6] 96 % of control | [7] 102 % of control | [8] 106 % of control

CC1=CC(=O)c2ccccc2C1=O
inactive: dose: 9.0 mg/kg/injection, schedule: Q01DX009 (ip), vehicle: other 100 % of control | dose: 13.5 mg/kg/injection, schedule: Q01DX009 (ip), vehicle: other 114 % of control | dose: 20.0 mg/kg/injection, schedule: Q01DX001 (ip), vehicle: other 95 % of control | dose: 20.0 mg/kg/injection, schedule: Q01DX009 (ip), vehicle: other 97 % of control | dose: 30.0 mg/kg/injection, schedule: Q01DX009 (ip), vehicle: other 97 % of control | dose: 40.0 mg/kg/injection, schedule: Q01DX001 (ip), vehicle: other 104 % of control | dose: 60.0 mg/kg/injection, schedule: Q01DX001 (ip), vehicle: other 104 % of control | dose: 90.0 mg/kg/injection, schedule: Q01DX001 (ip), vehicle: other 104 % of control

CN1C(=O)NC(c2cccc(N(CCCl)CCCl)c2)C1=O (configuration not stated)
inactive: [11] 116 % of control and 108 % of control | [12] 120 % of control | [13] 121 % of control

c1ccc(NC2CCN(C3(c4ccccc4)CCCCC3)CC2)cc1
inactive: dose: 25.0 mg/kg/injection, schedule: Q04DX002 (ip), vehicle: saline 97 % of control | dose: 50.0 mg/kg/injection, schedule: Q04DX002 (ip), vehicle: saline 94 % of control

CCCCCC/C=C/C(O)CC (configuration not stated)
inactive: [14] 100 % of control | [15] 95 % of control | dose: 400.0 mg/kg/injection, schedule: Q04DX003 (ip), vehicle: saline 103 % of control

COc1ncnc2c1cnn2C1OC(CO)C(O)C1O (configuration not stated)
inactive: dose: 12.5 mg/kg/injection, schedule: Q01DX005 (ip), vehicle: water 94 % of control | dose: 25.0 mg/kg/injection, schedule: Q01DX005 (ip), vehicle: water 96 % of control | dose: 50.0 mg/kg/injection, schedule: Q01DX005 (ip), vehicle: water 96 % of control | dose: 100.0 mg/kg/injection, schedule: Q01DX005 (ip), vehicle: water 104 % of control | dose: 200.0 mg/kg/injection, schedule: Q01DX005 (ip), vehicle: water 107 % of control

O=c1[nH]ccc2occc12
inactive: [4] 101 % of control | [6] 102 % of control | [9] 105 % of control | [10] 109 % of control

O=C(O)c1cccc(F)c1Br
inactive: [1] 95 % of control | [2] 95 % of control | [3] 87 % of control

CCOCCc1ccncc1
inactive: [14] 101 % of control | [15] 104 % of control

Clc1ccc2c(c1)[N-]c1ccccc1S2.Clc1ccc2c(c1)[N-]c1ccccc1S2.[Cl][Pt+2][Cl]
inactive: dose: 3.8 mg/kg/injection, schedule: Q04DX003 (ip), vehicle: saline with Tween-80 102 % of control | dose: 7.5 mg/kg/injection, schedule: Q04DX003 (ip), vehicle: saline with Tween-80 102 % of control | dose: 15.0 mg/kg/injection, schedule: Q04DX003 (ip), vehicle: saline with Tween-80 90 % of control | dose: 30.0 mg/kg/injection, schedule: Q04DX003 (ip), vehicle: saline with Tween-80 94 % of control | dose: 60.0 mg/kg/injection, schedule: Q04DX003 (ip), vehicle: saline with Tween-80 90 % of control
